Experiments:
UCH-L1 = UCH-L1 (Homo sapiens, UniProt P09936); assay: Ub-AMC assay on purified DUB; type: biochemical; settings: 5 μM
Description: (§1) Purified DUBs at optimal concentrations (USPS; 20 nM, UCH-L1; 20 nM, UCH-L3; 5 nM, USP9x; immunoprecipitated from 500 μg Z138 cell lysate) were incubated in DUB buffer containing WP1130, vehicle alone (DMSO) or 1 mM NEM (positive control for DUB inhibition) in a 100 μL reaction volume for 30 min. The reaction was initiated by the addition of 500 nM Ub-AMC and the release of AMC-fluorescence was recorded at ex/em 380/480 using a spectrofluorometer.
(§2) USP9x was immunoprecipitated from Z138 cell lysates, prepared in DUB buffer and the beads were incubated with vehicle alone or WP1130 for 30 min. Ub-AMC (500 nM) was added to each reaction and fluorescence was monitored every minute for up to 30 minutes. The maximum fluorescence observed at the end of the linear phase of substrate cleavage in control and WP1130 treated DUBs was used as a gauge to estimate DUB activity and % inhibition. Treatment with 5 μM WP1130 reduced the activities of USP9x, USP5 and UCH-L1 by 80% or more.

UCH-L3 = UCH-L3 (Homo sapiens, UniProt P15374); assay: Ub-AMC assay on purified DUB; type: biochemical
Description: as §1, §2

USP5 = biological target: T1, USP5 (Homo sapiens, UniProt P45974); assay: Ub-AMC assay on purified DUB; type: biochemical; settings: 5 μM
T1 construct: endogenous in cells; host or cells: Z138
T1 sequence (P45974 1-858): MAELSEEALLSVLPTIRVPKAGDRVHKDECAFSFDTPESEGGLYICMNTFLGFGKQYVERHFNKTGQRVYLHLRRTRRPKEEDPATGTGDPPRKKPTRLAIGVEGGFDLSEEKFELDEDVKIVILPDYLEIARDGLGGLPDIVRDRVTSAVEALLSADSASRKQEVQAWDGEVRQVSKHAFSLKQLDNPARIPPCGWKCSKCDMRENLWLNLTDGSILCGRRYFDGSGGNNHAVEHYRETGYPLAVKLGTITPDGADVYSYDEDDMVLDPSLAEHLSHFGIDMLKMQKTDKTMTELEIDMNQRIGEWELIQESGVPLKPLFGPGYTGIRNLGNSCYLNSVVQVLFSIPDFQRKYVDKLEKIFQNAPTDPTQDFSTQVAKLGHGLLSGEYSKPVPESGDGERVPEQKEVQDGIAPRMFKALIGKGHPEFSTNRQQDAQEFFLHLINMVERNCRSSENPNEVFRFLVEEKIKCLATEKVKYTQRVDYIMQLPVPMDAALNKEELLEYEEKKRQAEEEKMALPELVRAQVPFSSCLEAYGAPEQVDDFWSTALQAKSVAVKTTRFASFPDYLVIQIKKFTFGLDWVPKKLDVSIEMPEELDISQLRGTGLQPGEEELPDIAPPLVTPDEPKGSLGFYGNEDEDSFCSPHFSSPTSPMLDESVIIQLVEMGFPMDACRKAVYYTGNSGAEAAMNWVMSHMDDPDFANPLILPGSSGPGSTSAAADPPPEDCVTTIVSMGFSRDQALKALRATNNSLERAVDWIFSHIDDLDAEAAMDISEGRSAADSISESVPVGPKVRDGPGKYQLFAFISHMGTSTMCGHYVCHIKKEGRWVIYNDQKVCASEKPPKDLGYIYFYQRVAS
Description: as §1, §2

[1] = tested on: CML and melanoma xenografts; assay: Xenograft mouse models of CML and melanoma; type: in vivo
USP14 = biological target: T2, USP14 (Homo sapiens, UniProt P54578); assay: HA-UbVs labeling of USP14; type: cell-based; settings: Z138 cells, 1, 5 or 10 μM, 1 hour
T2 construct: endogenous in cells; host or cells: Z138
Description: (§3) To assay for changes in activity of cellular deubiquitinase enzymes, Z138 and HEK293 cells were lysed in DUB buffer (50 mM Tris pH 7.4, 5 mM MgCl2, 150 mM NaCl) for 10 min at 4° C. The lysates were centrifuged at 20,000 RFC for 10 min and the supernatant was used for DUB labeling. Equal amounts of lysate were incubated with 500 ng of HA-UbVs for 1 hr at room temperature, followed by boiling in reducing sample buffer and resolving by SDS-PAGE. After protein transfer to nitrocellulose membranes, HA immunoblotting was used to detect DUB labeling.
Hemagglutinin-tagged ubiquitin vinyl methyl sulfone (HA-UbVs) acts as a DUB suicide substrate, forming a covalent adduct with active DUB enzymes. Specific cellular DUBs can be identified by anti-HA blotting, as previously shown in various cell types. Changes in specific DUB activities are measurable by monitoring HA-labeling in lysates from control and treated cells. Z138 cells were treated with WP1130 at 1, 5, or 10 μM or AG490 at 250 μM for 1 hours and lysed. 20 μg of clarified supernatant was incubated with 200 nM of HA-UbVS for 1 hr at 37° C. […] An in vitro analysis using cell lysates was performed to investigate direct DUB inhibition by WP1130. Briefly, untreated Z138 cell lysates were incubated with 5 μM WP1130 or vehicle alone for one hour at 37° C., followed by labeling with HA-UbVs.

Sindbis virus = Sindbis virus plaque assay; settings: African green monkey epithelial cells (Vero), 5 μM, 30 min pre-treatment
Hsp70 = Hsp70 immunoblot; type: cell-based; settings: CML cells
DUB activity = assay: Western / HA-UbVS labeling of DUB activity in intact cells; type: cell-based
Description: as §3, with “leukemic” for “Z138 and HEK293”, “RCF” for “RFC”, “SDS-PAGE.” for “SDS-PAGE. After protein transfer to nitrocellulose membranes,”
as §3
Cancer Res, 2010. 70(22): p. […] Blood, 2011. 117(11): p. […] Biochem Pharmacol, 2011. 82(4): p. […] Blood, 2007. 109(8): p. 3470-8.

[2] = tested on: Encephalomyocarditis virus; assay: Encephalomyocarditis virus plaque assay; settings: 5 μM, 30 min pre-treatment, listed as HWP1130

Chain of UCH-L1 (P09936 whole entry, species assumed): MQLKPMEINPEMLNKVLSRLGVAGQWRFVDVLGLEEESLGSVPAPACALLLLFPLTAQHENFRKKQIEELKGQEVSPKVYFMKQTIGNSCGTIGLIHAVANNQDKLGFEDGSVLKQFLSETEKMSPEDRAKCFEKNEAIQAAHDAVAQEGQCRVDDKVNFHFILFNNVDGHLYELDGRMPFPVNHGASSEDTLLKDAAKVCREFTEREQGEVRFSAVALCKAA
Chain of UCH-L3 (P15374 whole entry, species assumed): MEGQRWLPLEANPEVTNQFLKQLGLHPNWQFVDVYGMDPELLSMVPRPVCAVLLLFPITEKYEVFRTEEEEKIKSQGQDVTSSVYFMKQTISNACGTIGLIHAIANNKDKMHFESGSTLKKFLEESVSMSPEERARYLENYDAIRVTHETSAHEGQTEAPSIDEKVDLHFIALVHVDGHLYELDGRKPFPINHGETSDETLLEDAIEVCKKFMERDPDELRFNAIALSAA
T2 sequence (P54578 whole entry): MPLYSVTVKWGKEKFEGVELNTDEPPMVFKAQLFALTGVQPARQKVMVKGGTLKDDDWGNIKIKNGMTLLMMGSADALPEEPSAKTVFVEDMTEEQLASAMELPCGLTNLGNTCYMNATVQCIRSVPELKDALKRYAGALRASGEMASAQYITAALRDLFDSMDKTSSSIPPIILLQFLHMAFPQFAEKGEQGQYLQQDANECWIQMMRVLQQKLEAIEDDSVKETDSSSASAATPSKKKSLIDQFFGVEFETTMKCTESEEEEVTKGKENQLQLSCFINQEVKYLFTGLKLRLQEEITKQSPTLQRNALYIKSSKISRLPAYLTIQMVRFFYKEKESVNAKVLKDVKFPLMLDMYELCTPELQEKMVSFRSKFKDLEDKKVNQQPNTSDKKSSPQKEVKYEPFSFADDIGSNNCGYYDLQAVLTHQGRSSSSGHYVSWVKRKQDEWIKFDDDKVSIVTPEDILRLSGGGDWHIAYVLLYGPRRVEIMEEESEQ

SMILES: CCC[C@H](NC(=O)/C(C#N)=C/c1cccc(Br)n1)c1ccccc1 [WP1130]
- reduction of UCH-L1 activity (UCH-L1): ≥ 80%
- inhibition of UCH-L3 activity (UCH-L3): No inhibition
- reduction of USP5 activity (USP5): ≥ 80%
- tumor growth in vivo [1]: effectively suppresses tumor growth
- HA-UbVS labeling of USP14 (USP14): dose-dependent and time reduction in the labeling
- Log inhibition by plaque assay (Sindbis virus): 2-2.5 log
- Log inhibition by plaque assay (Sindbis virus; listed as HWP1130): 2 log
- Hsp70 protein levels (Hsp70): increased
- blocking MNV-1 or DUB activation associated with MNV-1 infection (DUB activity; RAW 264.7, 1.25 μM): ineffective
- DUB activity induced by MNV-1 infection (HA-UbVS) (DUB activity; RAW 264.7, anti-viral effective concentrations): block DUB activity
- Log inhibition by plaque assay [2]: 2 log
